Measurements published in the CheMixHub viscosity set.

Assay: xn = mol fraction of the nth substance listed

CCCC(C)O (centres undefined) + COC(C)(C)C
viscosity [mPa·s], 100 kPa
Settings	x2 = 0.0811	x2 = 0.1599	x2 = 0.24	x2 = 0.3501	x2 = 0.44	x2 = 0.56	x2 = 0.65	x2 = 0.74	x2 = 0.8499	x2 = 0.94
293.15 K	2.815	1.943	1.344	0.97	0.774	0.621	0.546	0.496	0.436	0.39
298.15 K	2.359	1.633	1.134	0.823	0.666	0.546	0.488	0.441	0.39	0.355
303.15 K	1.994	1.378	0.98	0.705	0.574	0.474	0.424	0.39	0.35	0.321
308.15 K	1.682	1.181	0.868	0.617	0.493	0.407	0.37	0.341	0.313	0.292
313.15 K	1.419	1.001	0.728	0.514	0.407	0.337	0.313	0.296	0.275	0.263
318.15 K	1.208	0.849	0.613	0.412	0.326	0.275	0.255	0.243	0.234	0.231
323.15 K	1.032	0.744	0.524	0.345	0.268	0.226	0.211	0.2	0.197	0.2

C1CC[C@H]2CCCC[C@H]2C1 + C1CC[C@H]2CCCC[C@@H]2C1
Settings	viscosity [mPa·s]
293.15 K, 101 kPa, x1 = 0.103	2.193
293.15 K, 101 kPa, x1 = 0.129	2.206
293.15 K, 101 kPa, x1 = 0.206	2.289
293.15 K, 101 kPa, x1 = 0.256	2.321
293.15 K, 101 kPa, x1 = 0.383	2.391
293.15 K, 101 kPa, x1 = 0.509	2.622
293.15 K, 101 kPa, x1 = 0.608	2.748
293.15 K, 101 kPa, x1 = 0.633	2.763
293.15 K, 101 kPa, x1 = 0.756	2.943
293.15 K, 101 kPa, x1 = 0.805	3.026
293.15 K, 101 kPa, x1 = 0.903	3.178
293.15 K, 101.3 kPa, x1 = 0.403	2.445
298.15 K, 100 kPa, x1 = 0.39	2.22
303.15 K, 101 kPa, x1 = 0.103	1.68
303.15 K, 101 kPa, x1 = 0.129	1.704
303.15 K, 101 kPa, x1 = 0.206	1.748
303.15 K, 101 kPa, x1 = 0.256	1.792
303.15 K, 101 kPa, x1 = 0.383	1.896
303.15 K, 101 kPa, x1 = 0.509	1.977
303.15 K, 101 kPa, x1 = 0.608	2.062
303.15 K, 101 kPa, x1 = 0.633	2.094
303.15 K, 101 kPa, x1 = 0.756	2.151
303.15 K, 101 kPa, x1 = 0.805	2.244
303.15 K, 101 kPa, x1 = 0.903	2.342
303.15 K, 101.3 kPa, x1 = 0.403	1.998
313.15 K, 101.3 kPa, x1 = 0.403	1.705
323.15 K, 100 kPa, x1 = 0.39	1.44
323.15 K, 101.3 kPa, x1 = 0.403	1.457

CCCCBr + CCC(C)O
viscosity [mPa·s], 101.33 kPa
Settings	x2 = 0.11	x2 = 0.208	x2 = 0.3145	x2 = 0.3968	x2 = 0.4998	x2 = 0.6057	x2 = 0.7046	x2 = 0.786	x2 = 0.8988
298.15 K	0.613	0.642	0.689	0.742	0.833	0.975	1.176	1.428	2.018
308.15 K	0.538	0.552	0.581	0.614	0.675	0.77	0.905	1.075	1.461
318.15 K	0.483	0.492	0.512	0.537	0.579	0.653	0.741	0.855	1.111

CCCCNCCCC + CCO
viscosity [mPa·s], 101.33 kPa
Settings	x1 = 0.1169	x1 = 0.2094	x1 = 0.3171	x1 = 0.3921	x1 = 0.4922	x1 = 0.6159	x1 = 0.712	x1 = 0.7802	x1 = 0.8995
303.15 K	1.107	1.126	1.099	1.065	1.008	0.9427	0.8965	0.8625	0.8089
313.15 K	0.9037	0.9066	0.8803	0.8493	0.8109	0.766	0.7426	0.7261	0.6965

CCCCNCCCC + CCCCCCCCO
viscosity [mPa·s], 101.33 kPa
Settings	x1 = 0.0912	x1 = 0.1863	x1 = 0.2846	x1 = 0.3857	x1 = 0.4878	x1 = 0.5882	x1 = 0.6862	x1 = 0.7892	x1 = 0.8929
303.15 K	5.37	4.588	3.829	3.105	2.481	1.979	1.581	1.251	0.9852
313.15 K	3.865	3.336	2.812	2.336	1.921	1.569	1.277	1.026	0.827

CCCCNCCCC + CCC(=O)O
viscosity [mPa·s], 101.33 kPa
Settings	293.15 K	293.5 K	298.15 K	303.15 K	308.15 K	313.15 K	318.15 K	323.15 K
x2 = 0.2	–	2.45	2.21	2.05	1.87	1.69	1.54	1.44
x2 = 0.4	20.21	–	15.81	12.24	9.94	7.97	6.42	5.61
x2 = 0.5	–	–	–	48.04	35.66	27.31	21.32	17.49
x2 = 0.6	109.3	–	80.86	64.2	49.41	39.46	31.87	25.8
x2 = 0.7	125.9	–	94.32	72.81	54.5	42.04	34.15	27.7
x2 = 0.75	139.3	–	102.5	74.31	58.19	44.26	35.31	27.67
x2 = 0.8	16.74	–	14.24	11.85	10.22	8.75	7.62	6.98

CC[N+](CC)(CC)CC.[OH-] + CC(=O)N(C)C
viscosity [mPa·s], 101 kPa
Settings	298.15 K	303.15 K	308.15 K	313.15 K
x1 = 0.0216	1.19	1.11	1.03	0.96
x1 = 0.0663	1.64	1.54	1.42	1.32
x1 = 0.1133	2.08	1.95	1.79	1.67
x1 = 0.1628	2.49	2.33	2.16	2.01
x1 = 0.215	2.83	2.66	2.49	2.33
x1 = 0.2422	2.99	2.81	2.64	2.47
x1 = 0.2988	3.28	3.09	2.89	2.72
x1 = 0.3899	3.63	3.43	3.23	3.04
x1 = 0.4894	3.89	3.69	3.47	3.27
x1 = 0.5986	4.08	3.87	3.63	3.44
x1 = 0.7188	4.24	4.04	3.77	3.59
x1 = 0.806	4.39	4.18	3.91	3.76
x1 = 0.8995	4.59	4.38	4.11	3.95

COCCO + CO
viscosity [mPa·s]
Settings	298.15 K	308.15 K	318.15 K
101 kPa, x1 = 0.04469	0.6045	0.5088	0.4575
101 kPa, x1 = 0.09523	0.6714	0.536	0.469
101 kPa, x1 = 0.1529	0.7467	–	0.4955
101 kPa, x1 = 0.2192	0.8508	0.6249	0.5383
101 kPa, x1 = 0.2963	0.9698	0.6991	0.6017
101 kPa, x1 = 0.3871	1.085	0.7594	0.6484
101 kPa, x1 = 0.4956	1.19	0.8407	0.7649
101 kPa, x1 = 0.6274	1.299	0.9321	0.8436
101 kPa, x1 = 0.7912	1.419	1.058	0.9667
101.33 kPa, x1 = 0.1175	–	0.569	–
101.33 kPa, x1 = 0.2098	–	0.64	–
101.33 kPa, x1 = 0.3143	–	0.717	–
101.33 kPa, x1 = 0.4866	–	0.844	–
101.33 kPa, x1 = 0.6126	–	0.93	–
101.33 kPa, x1 = 0.762	–	1.036	–
101.33 kPa, x1 = 0.8201	–	1.074	–
101.33 kPa, x1 = 0.9101	–	1.13	–
